Key:
[1] = target: T1, human α-1,3-fucosyltransferase V (Homo sapiens, UniProt Q11128); details: in the presence of guanosine diphosphate (GDP); cited from earlier work
T1 sequence (Q11128 1-374): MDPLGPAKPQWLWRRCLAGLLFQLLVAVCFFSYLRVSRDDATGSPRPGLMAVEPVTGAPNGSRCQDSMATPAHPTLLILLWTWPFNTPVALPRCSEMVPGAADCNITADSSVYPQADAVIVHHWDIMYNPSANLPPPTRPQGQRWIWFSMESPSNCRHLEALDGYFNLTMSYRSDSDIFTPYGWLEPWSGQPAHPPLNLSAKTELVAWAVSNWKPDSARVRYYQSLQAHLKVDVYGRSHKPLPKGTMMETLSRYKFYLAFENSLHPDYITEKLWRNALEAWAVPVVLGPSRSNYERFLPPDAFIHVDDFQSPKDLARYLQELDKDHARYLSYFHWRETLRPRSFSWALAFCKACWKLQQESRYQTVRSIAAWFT

PC12 cells [2] = assay: Immunocytology: anti-GT1b antibody binding to PC12 cells by flow cytometry; assay type: cell-based; details: for reduction in anti-ganglioside antibody binding: 3 days of exposure, anti-GT1b mAb
Experimental: (§1) PC12 cells were grown under standard undifferentiated conditions with and without a range of NB-DNJ concentrations (1, 5, 10, 50, 100 and 500 μM). Cells were grown in flasks for immunocytology and analytical studies on ganglioside levels and also in 96-well tissue culture plates for antibody mediated lysis studies. Time points examined were day 0, 1, 2 and 3, and 2 and 3 days post-compound wash out.
PC12 cells were grown in DMEM containing 7.5% FCS and 7.5% horse serum. The medium was supplemented with 0, 1, 5, 10, 50, 100 or 500 μM NB-DNJ and the cells cultured for 3 days. The media was then replaced with DMEM without NB-DNJ and the cells cultured for a further 3 days. At days 0, 1, 2, 3 and days 2 and 3 post NB-DNJ treatment, cells were harvested and ganglioside levels assessed by analysing anti-ganglioside antibody binding using flow cytometry. Briefly, 1×10^5 cells were stained with 10 μg/ml of a murine anti-GT1b mAb for 1 hour at room temperature. Binding was then detected by a FITC labelled antibody with specificity for mouse IgG. Binding is expressed in FIGS. 2 and 3 as the mean fluorescence of triplicate experiments. To allow any reduction in ganglioside levels to be clearly visualised at each time point, the mean fluorescence is shown as a percentage of that at day 0. Error bars indicate sem.

PC12 cells [3] = assay: Anti-ganglioside antibody / complement-mediated lysis of PC12 cells (LDH release); assay type: cell-based
Experimental: as §1
The consequences of reduced anti-ganglioside antibody binding treated cells were evaluated by measuring antibody-mediated cytotoxicity (FIGS. 4 and 5). Thus, cells from each day and NB-DNJ concentration were also assayed for anti-ganglioside antibody-mediated cytotoxicity. Lysis studies were conducted using anti-ganglioside antibodies in conjunction with fresh human serum as a source of complement. Cell viability was quantitated by colourimetric assay measuring LDH release upon cell lysis.
After coating onto 96 well tissue culture plates (5×10^3 cells/well), the cells were incubated with anti-GT1b antibody at 10 μg/ml for 1 hour at room temperature. Then, 10% human serum was added as a source of complement for a further hour at 37° C. Complement-mediated cell lysis was measured using a Cytotox 96 cytotoxic assay kit (Promega), following the instructions supplied. LDH released upon cell lysis was measured by a colourimetric assay; a tetrazolium salt is converted into a red formazan product. […]

PC12 cells [4] = assay: HPLC analysis of GSL levels in NB-DNJ treated PC12 cells; assay type: cell-based; details: day 3, PC12 cells, preliminary analysis
Experimental: as §1
HPLC analysis of the treated and untreated cells was performed to determine the extent of GSL depletion that results from NB-DNJ treatment.

RAW cells [5] = assay: TLC immuno-overlay of RAW cell ganglioside extract with GBS patient serum (anti-GM1 binding); assay type: cell-based; details: for GBS patient sera antibody binding to GM1: RAW cells grown in 0 to 1000 μM drug, patient '8' serum (FIG. 13)
Experimental: GSL was extracted from RAW cells incubated in a range of NB-DNJ and NB-DGJ concentrations from 0 to 1 mM and separated by TLC. Extract was run parallel to purified GM1 on duplicate TLC plates. Immuno-overlay was carried out using patient ‘8’ and control ‘4’ sera.
The procedure was then repeated with standardisation of the amount of material loaded onto the gel (FIG. 14). This was calculated using the bicinchoninic acid protein quantification method (Chan et al., 1993). […] No binding was observed when the overlay was conducted with control serum, indicating specificity of this effect to GBS auto-antibody.

RAW cells [6] = assay: Orcinol-stained TLC of GM1 in RAW cell extract; assay type: cell-based; details: for IC50: GM1 in RAW cells, stated only as comparable to 50 μM, read-out: apparent IC50 estimated from orcinol stained RAW TLC; for levels of GM1 in RAW cells: orcinol staining, 0 to 1000 μM drug (FIG. 15)
From the text: A third TLC plate (FIG. 15) with standardised amounts of sample was run in an identical manner to those in FIG. 14 but stained with orcinol.

PC12 cells [7] = assay: HPLC analysis of PC12 gangliosides; assay type: cell-based; details: for ganglioside depletion in PC12 cells: HPLC (FIG. 17)
Experimental: In the absence of detectable binding by TLC immuno-overlay, a new technique was necessary to analyse the identity and relative abundance of gangliosides present on PC12 cells. To this end, HPLC was carried out on ganglioside extracted from PC12 cells grown in a range of NB-DGJ and NB-DNJ concentrations from 0-1 mM.

Neuroblastoma NB1 cells = assay: Fluorescence microscopy of sera binding to Neuroblastoma NB1 cells; assay type: cell-based; details: NB1 cells treated with various concentrations; some GBS serum samples such as patient 7
From the text: This non-specific staining hinders interpretation of results when using whole sera. Cell staining indicated the necessity for a technique which provides isolated antigen, thereby reducing the potential of non-specific staining.

GSL levels = details: mice, cited from earlier work
[8] = cited from earlier work; for CNS penetration: mouse, in vivo; for neurological side effects: treatment of adult mice
[9] = test system: total ganglioside and GM1 content; details: cerebrum-brainstem; cited from earlier work
GSL biosynthesis = details: compared with NB-DNJ; cited from earlier work
[10] = mouse models of GSL storage diseases; cited from earlier work
sialyltransferase = details: cited from earlier work
rat recombinant α-2,3-ST = details: cited from earlier work
rat recombinant α-2,6-ST = target: T2, rat recombinant α-2,6-ST (Rattus norvegicus, UniProt P13721); details: cited from earlier work
T2 sequence (P13721 1-403): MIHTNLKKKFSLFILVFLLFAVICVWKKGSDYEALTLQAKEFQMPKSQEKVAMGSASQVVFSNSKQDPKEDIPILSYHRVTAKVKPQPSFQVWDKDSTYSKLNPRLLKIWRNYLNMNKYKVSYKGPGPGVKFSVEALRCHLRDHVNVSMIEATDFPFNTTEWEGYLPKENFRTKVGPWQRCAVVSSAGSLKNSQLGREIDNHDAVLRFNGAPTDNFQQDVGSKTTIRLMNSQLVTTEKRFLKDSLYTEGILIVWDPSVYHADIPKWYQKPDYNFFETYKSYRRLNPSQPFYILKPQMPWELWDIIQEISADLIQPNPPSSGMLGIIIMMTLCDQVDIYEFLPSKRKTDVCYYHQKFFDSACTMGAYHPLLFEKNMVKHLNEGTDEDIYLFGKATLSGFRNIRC

[11] = RAW cells, standardised amount of material (FIG. 14)

CCCO[C@H]1O[C@H](CO)[C@@H](O[C@@H]2O[C@H](CO)[C@H](O)[C@H](O)[C@H]2O)[C@H](OCCN2C(C)C(O)C(O)C(O)C2CO)[C@H]1NC(C)=O (stereo partly drawn) [propyl 2-acetamido-2-deoxy-4-O-(β-D-galactopyranosyl)-3-O-(2-(N-(β-L-homofaconojirimycinyl))ethyl)-α-D-glucopyranoside]
inhibition of human α-1,3-fucosyltransferase V [1]: effective inhibitor

CCCCN1C[C@H](O)[C@@H](O)[C@H](O)[C@H]1CO [NB-DNJ, N-butyldeoxynojirimycin]
anti-ganglioside antibody binding (PC12 cells [2]; 50 μM and higher concentrations): significant time dependent reduction | reduction in anti-ganglioside antibody binding (PC12 cells [2]; 100 μM): 70% | reduction in anti-ganglioside antibody binding (PC12 cells [2]; 500 μM): 90% | anti-ganglioside antibody binding after wash out of the compound (PC12 cells [2]; by day 3 post wash out): returning to the levels of untreated cells | protection from complement mediated lysis (PC12 cells [3]; 100 uM): approximately 60% | protection from complement mediated lysis (PC12 cells [3]; 500 uM): ~80% | GSL levels (PC12 cells [4]): 10-20 % of control | GBS patient sera antibody binding to GM1 (RAW cells [5]): drug dependent decrease | patient anti-GM1 antibody binding as drug concentration was increased (RAW cells [5]; [11]): progressively lower levels | IC50 (RAW cells [6]): ~50 µM | levels of GM1 in RAW cells (RAW cells [6]): drug dependent decrease | ganglioside depletion in PC12 cells (PC12 cells [7]; 50 μM): significant ganglioside depletion | ganglioside depletion in PC12 cells (PC12 cells [7]; 1 mM): Further depletion | fluorescence of serum binding on drug-treated cells (Neuroblastoma NB1 cells): decrease in fluorescence | time at which effect on GSL levels stabilizes (GSL levels): 10 days | GSL levels (GSL levels; within a day of treatment): measurable decrease | CNS penetration [8]: penetrate the CNS | neurological side effects [8]: not to cause neurological side effects

CCCCN1C[C@H](O)[C@@H](O)[C@@H](O)[C@H]1CO [NB-DGJ, N-butyldeoxygalactonojirimycin]
GBS patient sera antibody binding to GM1 (RAW cells [5]): drug dependent decrease | drug dependent decrease in antibody binding to GM1, comparison of the two drugs (RAW cells [5]; RAW cells, FIG. 13): slightly more efficient | decrease of patient anti-GM1 antibody binding, comparison of the two drugs (RAW cells [5]; [11]): more pronounced | patient anti-GM1 antibody binding as drug concentration was increased (RAW cells [5]; [11]): progressively lower levels | IC50 (RAW cells [6]): ~50 µM | levels of GM1 in RAW cells (RAW cells [6]): drug dependent decrease | ganglioside depletion in PC12 cells (PC12 cells [7]; 50 μM): significant ganglioside depletion | ganglioside depletion in PC12 cells (PC12 cells [7]; 1 mM): Further depletion | inhibitor potency, comparison of the two drugs (PC12 cells [7]; PC12 cells, HPLC): more a potent inhibitor | fluorescence of serum binding on drug-treated cells (Neuroblastoma NB1 cells): decrease in fluorescence | CNS penetration [8]: penetrate the CNS | neurological side effects [8]: not to cause neurological side effects | total ganglioside and GM1 content [9]: marked reduction | inhibition of GSL biosynthesis (GSL biosynthesis): comparably to NB-DNJ | tolerability [10]: very well tolerated

C[C@@H]1O[C@@H](O[C@H]2[C@H](O[C@H]3[C@H](O[C@H]4CC[C@@]5(C)[C@@H](CC[C@]6(C)[C@@H]5CC=C5[C@@H]7CC(C)(C)C[C@@H](O)[C@]7(C)CC[C@]56C)[C@@]4(C)CO)O[C@H](C(=O)O)[C@@H](O)[C@@H]3O)O[C@H](CO)[C@H](O)[C@@H]2O)[C@H](O)[C@H](O)[C@H]1O [Soyasaponin I]
sialyltransferase inhibition (sialyltransferase): potent and specific

cytidin-5′-yl sialylethylphosphonate
IC50 (rat recombinant α-2,3-ST): 47 µM | IC50 (rat recombinant α-2,6-ST): 340 µM
